According to patent publication US5585355A, “Method for increasing blood-ocular barrier permeability with permeabilizer peptides” (Alkermes, Inc., priority 1994, dated 1996):
“And” between values parts separate entries of the source, which are not always exact repeats. Equal values may be shown once. Read-outs that look alike come from different tables or passages of the source.

Key:
blood-ocular barrier = settings: for Uptake of [14C]-sucrose, % of plasma concentration (W/W) / KIN, unidirectional transport rate of [14C]-sucrose: A-7 1 μg/kg; for KIN, unidirectional transport rate of [14C]-sucrose: 3.0 min to 4.5 min
Method: Adult Hartley guinea pigs of either sex (250-300 g) were used.
Animals were anaesthetized with 6 mg/kg xylazine (Rompun®, Mobay Corp., Shawnee, Kans.) and 30 mg/kg ketamine (Vetacet®, Abeco Co., Inc., Fort Dodge, Iowa) before surgically exposing the neck vessels. […] The technique is briefly summarized here. A fine polyethylene catheter connected to the extracorporeal perfusion system by silicon tubings was inserted into the right common carotid artery. Immediately after the start of the perfusion, the contralateral carotid artery was ligated and both jugular veins cut to allow free drainage of the perfusate.
All tubing was low gas permeable silicon, and all metal was medical grade stainless steel. The temperature and perfusion pressure were continuously recorded, and the acid-base status frequently monitored. Perfusion pressure was kept slightly above the animal's blood pressure to eliminate any possible ingress from the systemic circulation.
Isotopically labeled [^14 C]-sucrose was introduced into the perfusion circuit after the 5 minute infusion at a rate of 0.4 to 0.6 μCi/ml/min, over periods ranging from 1.5 min to 4.5 min. In all experiments, the perfusion was terminated by severing the right common carotid artery and decapitating the animal.
The eyes were enucleated and the lenses rapidly excised via a lateral approach 1.5 mm posteriorly to the limbus. The lenses were blotted on filter paper to remove any adhering aqueous humor and to avoid epithelial contamination by aqueous radioactivity. Corneas were dissected circumferentially about 0.5 mm anteriorly to the limbus. After removal of the anterior segment of the eye, the vitreous body was dissected from the retinal surface. Retinas were scooped from the lying epithelium. All tissues were blotted after dissection to minimize contamination by adjacent tissue layers and/or fluids. Samples of plasma, aqueous humor, lens, cornea, retina and posterior vitreous were treated with 2 ml Beckman Tissue Solubilizer (BTS)-450, and 16 ml of scintillant (Beckman Ready Organic, Fullerton, Calif.). Radioactivity was determined in a Beckman LS-7500 liquid scintillation spectrometer.
(When data are expressed as percentages the ratios were multiplied by 100.) The following equations were used to calculate ratios:
Caqueous or Cvitreous /Cplasma =(DPM/ml aqueous or vitreous)/(DPM/ml plasma)
Clens or Ccornea or Cretina /Cplasma =(DPM/g lens or cornea or retina)/(DPM/ml plasma)
Multiple-time uptake series were performed, and the unidirectional transport rate constant, KIN, and initial volume of tracer distribution, VI, were calculated using the following equations where T is the perfusion time:
KIN (plasma-aqueous or vitreous)=[Caqueous or vitreous /Cplasma ]T+VI (aqueous or vitreous/plasma)
KIN (plasma-lens, cornea or retina)=[Clens, cornea or retina /Cplasma ]T+VI (lens cornea or retina/plasma)
The respective KIN and VI values were graphically estimated by linear regression analysis as a slope and ordinate intercept of the line corresponding to the best linear fit to experimental data points for the time period when there was no significant departure from linearity in studied compartments.
Results are presented as means±SE.

[1] = Effect of A-7 on physiological functions; type: in vivo, guinea pig; settings: for Blood Pressure / Body Weight / Heart Rate / Respirations/Minute: within first minute of infusion

Arginine-Proline-Hydroxyproline-Glycine-Thienylalanine-Serine-Proline-4-Me-Tyrosine-(CH2 NH)Arginine [A-7]
Uptake of [14C]-sucrose, % of plasma concentration (W/W) (blood-ocular barrier; aqueous, 1.5 min after sucrose added): 0.19 ± 0.01 % of Plasma Concentration (W/W
Uptake of [14C]-sucrose, % of plasma concentration (W/W) (blood-ocular barrier; aqueous, 3.0 min after sucrose added): 0.41 ± 0.18 % of Plasma Concentration (W/W
KIN, unidirectional transport rate of [14C]-sucrose (blood-ocular barrier; aqueous): 9.13 ± 3.66 µL/min/g
Uptake of [14C]-sucrose, % of plasma concentration (W/W) (blood-ocular barrier; aqueous, 4.5 min after sucrose added): 1.79 ± 0.68 % of Plasma Concentration (W/W
Uptake of [14C]-sucrose, % of plasma concentration (W/W) (blood-ocular barrier; cornea, 1.5 min after sucrose added): 0.48 ± 0.19 % of Plasma Concentration (W/W
Uptake of [14C]-sucrose, % of plasma concentration (W/W) (blood-ocular barrier; cornea, 3.0 min after sucrose added): 1.01 ± 0.23 % of Plasma Concentration (W/W
KIN, unidirectional transport rate of [14C]-sucrose (blood-ocular barrier; cornea): 16.20 ± 3.42 µL/min/g
Uptake of [14C]-sucrose, % of plasma concentration (W/W) (blood-ocular barrier; cornea, 4.5 min after sucrose added, an outlier of 0.5% not included): 3.44 ± 1.40 % of Plasma Concentration (W/W
KIN for sucrose, times higher in the presence of A-7 (blood-ocular barrier; lens): 6.5 times
Uptake of [14C]-sucrose, % of plasma concentration (W/W) (blood-ocular barrier; lens, 1.5 min after sucrose added): 0.03 ± 0.02 % of Plasma Concentration (W/W
Uptake of [14C]-sucrose, % of plasma concentration (W/W) (blood-ocular barrier; lens, 3.0 min after sucrose added): 0.05 ± 0.01 % of Plasma Concentration (W/W
KIN, unidirectional transport rate of [14C]-sucrose (blood-ocular barrier; lens): 0.130 ± 0.015 µL/min/g
Uptake of [14C]-sucrose, % of plasma concentration (W/W) (blood-ocular barrier; lens, 4.5 min after sucrose added): 0.07 ± 0.01 % of Plasma Concentration (W/W
KIN for sucrose, times higher in the presence of A-7 (blood-ocular barrier; retina): 6.7 times
Uptake of [14C]-sucrose, % of plasma concentration (W/W) (blood-ocular barrier; retina, 1.5 min after sucrose added, 5 min arterial infusion): 0.95 ± 0.30 % of Plasma Concentration (W/W
Uptake of [14C]-sucrose, % of plasma concentration (W/W) (blood-ocular barrier; retina, 3.0 min after sucrose added, 5 min arterial infusion): 1.76 ± 0.50 % of Plasma Concentration (W/W
KIN, unidirectional transport rate of [14C]-sucrose (blood-ocular barrier; retina): 4.27 ± 0.9 µL/min/g
Uptake of [14C]-sucrose, % of plasma concentration (W/W) (blood-ocular barrier; retina, 4.5 min after sucrose added, 5 min arterial infusion): 2.26 ± 0.56 % of Plasma Concentration (W/W
Uptake of [14C]-sucrose, % of plasma concentration (W/W) (blood-ocular barrier; vitreous, 1.5 min after sucrose added): 0.03 ± 0.018 % of Plasma Concentration (W/W
Uptake of [14C]-sucrose, % of plasma concentration (W/W) (blood-ocular barrier; vitreous, 3.0 min after sucrose added): 0.05 ± 0.01 % of Plasma Concentration (W/W
KIN, unidirectional transport rate of [14C]-sucrose (blood-ocular barrier; vitreous): 0.84 µL/min/g and 0.84 ± 0.25 µL/min/g
Uptake of [14C]-sucrose, % of plasma concentration (W/W) (blood-ocular barrier; vitreous, 4.5 min after sucrose added): 0.18 ± 0.05 % of Plasma Concentration (W/W
Effect on sucrose uptake by vitreous (blood-ocular barrier; vitreous, time points earlier than 4.5 minutes of VEP): did not affect
Changes in body weight, respiration rate, blood pressure and heart rate ([1]; A-7 1 μg/kg): no significant changes
Blood Pressure ([1]; A-7 1 μg/kg body weight): 75 mm Hg
Body Weight ([1]; A-7 1 μg/kg body weight): 283 g
Heart Rate ([1]; A-7 1 μg/kg body weight): 170 Beats Per Minute
Respirations/Minute ([1]; A-7 1 μg/kg body weight): 26
Blood Pressure ([1]; A-7 3 μg/kg body weight): 90 mm Hg
Body Weight ([1]; A-7 3 μg/kg body weight): 283 g
Heart Rate ([1]; A-7 3 μg/kg body weight): 200 Beats Per Minute
Respirations/Minute ([1]; A-7 3 μg/kg body weight): 44
Blood Pressure ([1]; A-7 10 μg/kg body weight): 100 mm Hg
Body Weight ([1]; A-7 10 μg/kg body weight): 285 g
Heart Rate ([1]; A-7 10 μg/kg body weight): Unmeasur-
Respirations/Minute ([1]; A-7 10 μg/kg body weight): 58
